Patent US8481005B2, “Methods to prevent cytotoxicity using N-acetyl-cysteine” (priority 2006, dated 2013)

Key:
Format in all cases: cell-based
[1] = tested on: human dental pulp stromal cells; assay: VEGF by ELISA, human dental pulp stromal cells, NAC versus vitamin E (Table 5); conditions: 4 hours
Method: (§1) Following the 4 hour incubation, cells were analyzed for apoptosis using FTIC-Annexin V and PI.
Dental pulp stromal cells were then treated as described in the preceding paragraph with supernatants removed and assayed for VEGF levels by ELISA following the 4 hour incubation.

[2] = tested on: human dental pulp stromal cells; assay: Apoptosis of human dental pulp stromal cells, NAC versus vitamin E, 4 hours; conditions: HEMA (0.0082M), vitamin E (5 mM)
Method: as §1

Caspase 3 = assay: Full length caspase 3 in keratinocytes; conditions: about 8 hours, NAC 20 mM
Text: Roles of NFkB and GAPDH in HEMA-Mediated Cell Death

PBMCs = PBMCs treated with HEMA or CDDP, FITC-Annexin V and PI; conditions: about 18 hours, highest concentration of CDDP, HEMA 0.0164M-0.00164M
Text: The cells were then stained with FITC-Annexin V and PI according to the manufacturer's protocol.

active caspase 3 = assay: Active caspase 3 staining in PBMCs treated with HEMA or CDDP; conditions: HEMA 0.0164M, CDDP
[3] = tested on: dental pulp stromal cells; assay: Cell death of rat dental pulp stromal cells with ascorbic acid; conditions: overnight incubation; FITC Annexin V and PI
Method: Rat dental pulp stromal cells were next treated with HEMA in the presence and absence of another antioxidant, ascorbic acid. After an overnight incubation following procedures similar to those described above, levels of cell death were determined using FITC Annexin V and PI. […] Role of Cell Differentiation Studies

Vitamin E [Vit E]
VEGF levels by ELISA, Human dental pulp stromal cells ([1]; no HEMA, NAC (20 mM) and/or vitamin E (5 mM)): 1966.2
prevention of HEMA mediated decrease in VEGF secretion ([1]; vitamin E (5 mM)): failed to prevent the HEMA mediated decrease in VEGF secretion
inhibition of HEMA mediated cell death [2]: failed to inhibit HEMA mediated cell death

CC[C@@]1(O)C(=O)OCc2c1cc1n(c2=O)Cc2cc3ccccc3nc2-1 [camptothecin]
levels of full length caspase 3 (processing of caspase 3) (Caspase 3): moderate effect in processing of caspase 3

N.N.[Cl][Pt][Cl] [CDDP, Cis-diaminedichloroplatinum (II)]
cells remained both PI and Annexin V negative (PBMCs): 80%
active caspase 3 staining (active caspase 3): 22%

O=C1O[C@H]([C@@H](O)CO)C(O)=C1O [ascorbic acid]
reversal of apoptosis induced by HEMA [3]: did not reverse apoptosis induced by HEMA
